How the values were obtained:
CL-K1 [1] = target: T1, CL-K1 (Homo sapiens, UniProt Q9BWP8); test: Glycan-array screen with fluorophore-labelled CL-K1; assay type: binding; design: For full-length protein, the cDNA was cloned into the polylinker region of expression vector pED; made in house; host or cells: Chinese hamster ovary cells; conditions: for relative fluorescence, With Ca^2+ / relative fluorescence, Without Ca^2+: glycan array, ± SE from six replicates; for relative fluorescence, With Ca^2+: CL-K1 200 μg/ml; for relative fluorescence, With Ca^2+ / glycan-array binding by CL-K1: with Ca2+; for relative fluorescence, Without Ca^2+: without Ca2+
Excerpt: To examine binding to individual glycans, fluorophore-labelled CL-K1 was used to probe a broad screen of mammalian carbohydrates using the Core H Glycan array technology facility at The Consortium for Functional Glycomics. […] The relative fluorescence signal provides an accurate indication of the order of affinities. Consistent with the glycoprotein data, the best ligands were all high-mannose oligosaccharides (Figure 2A and Additional file 1), but not all of these were recognised. Mammalian high-mannose structures comprise a Man5 core attached to the protein via two GlcNAc residues, with α1-2 linked sugars at the non-reducing termini (Figure 2C). CL-K1 only recognised those structures containing at least one terminal Man(α1-2)Man epitope. For example, it bound tightly to Man6, Man7, Man8 and Man9 but not to the Man5 core (ligand 310) that comprises only α1-3 and α1-6 linkages. […] This pattern of recognition is different from other collectins, such as MBL and pulmonary-surfactant protein D that typically recognise the terminal sugar alone (mannose, fucose or N-acetyglucosamine). It is also different from other C-type lectins, such as DC-SIGN or DC-SIGNR that target larger high-mannose oligosaccharides preferentially (Man5 to Man9). To quantify the differences in affinities, we compared binding to three different epitopes that all form part of a high-mannose oligosaccharide. […] Thus, CL-K1 primarily recognises the terminal disaccharide of the glycan, rather than the terminal sugar alone, explaining its unusual binding properties.
Labelled protein (70 μL) was applied to the printed surface of the microarray chip coated with natural and synthetic glycans via amino linkers. The chip was covered and incubated at room temperature in a humidified chamber for one hour. Binding was detected by measuring the fluorescence associated with each glycan. Data are the average of six replicates.
Target sequence in this assay (Q9BWP8 26-271): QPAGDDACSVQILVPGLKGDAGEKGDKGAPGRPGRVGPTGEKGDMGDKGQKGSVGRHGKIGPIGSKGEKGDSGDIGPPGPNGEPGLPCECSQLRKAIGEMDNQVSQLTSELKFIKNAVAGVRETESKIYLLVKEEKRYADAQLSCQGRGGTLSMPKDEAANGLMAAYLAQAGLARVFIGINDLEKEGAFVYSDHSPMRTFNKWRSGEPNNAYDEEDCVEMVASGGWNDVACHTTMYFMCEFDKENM

CL-K1 [2] = target: T1, CL-K1; test: Surface plasmon resonance of CL-K1 binding to glycoproteins; design: For full-length protein, the cDNA was cloned into the polylinker region of expression vector pED; made in house; host or cells: Chinese hamster ovary cells; conditions: glycoprotein starting concentration 200 nM
Method: (§1) Figure 1 Glycoprotein binding and complement activation by CL-K1. A) Immunoblot of CL-K1 binding to immobilised mammalian and yeast glycoproteins. B) Surface plasmon resonance of CL-K1 binding to glycoproteins. […] C3b and its breakdown products were detected by absorbance using an anti-human C3c antibody with alkaline phosphatase-conjugated goat anti-rabbit secondary antibody and p-nitrophenyl phosphate as the substrate. Protein concentrations were calculated based on the molecular masses of CL-K1 and MBL trimers (78 kDa in each case). CL-K1, collectin-K1; MBL, mannan-binding lectin.
CL-K1 was immobilised on the surface of a GLM sensor chip (Bio-Rad Laboratories Ltd (Hemel Hempstead, UK)) by amine coupling. Binding was measured in 10 mM Tris–HCl, pH 7.4 containing 140 mM NaCl, 2 mM CaCl2 and 0.005% Tween 20 at a flow rate of 25 μl/minute and at 25°C. The protein surface was regenerated in buffer containing 1 M NaCl and 5 mM EDTA.
Target sequence in this assay (Q9BWP8 26-271): as above

CL-K1 [3] = target: T1, CL-K1; test: Immunoblot of CL-K1 binding to immobilised glycoproteins; design: For full-length protein, the cDNA was cloned into the polylinker region of expression vector pED; made in house; host or cells: Chinese hamster ovary cells; conditions: biotinylated CL-K1 0.06 mg/ml, glycoproteins spotted on nitrocellulose
Method: as §1
Target sequence in this assay (Q9BWP8 26-271): as above
Two-fold serial dilutions of glycoprotein (0.5 μl at a starting concentration of 2 mg/ml) were spotted on to a nitrocellulose membrane and allowed to dry for 30 minutes at room temperature. […] After washing, the membrane was incubated with Streptavidin-ALP conjugate (2ug/ml; Life Technologies Ltd (Paisley, UK)) and developed with BCIP-NBT substrate (Sigma).

CL-K1 [4] = target: T1, CL-K1; test: Proteolysis of CL-K1 by trypsin at increasing Ca2+ concentrations; assay type: binding; design: made in house; conditions: trypsin 0.5% (w/w), read-out: apparent KD for calcium
Method: (§2) Figure 4 Ca^2+ stabilises the CRDs of CL-K1. A) Fluorescence spectra of the CL-K1 fragment in different buffers. The λex was 280 nm. B) Ca^2+ binding to the CL-K1 fragment measured by fluorescence. […] C) Urea denaturation in the presence and absence of Ca^2+ (2 mM). […] Samples were separated by SDS-PAGE and gels were scanned to determine the amount of CL-K1 remaining. The amount of trypsin was 0.5% (w/w). The intensities of bands corresponding to the neck and CRD and the CRD alone were combined. A sample gel is shown in F). E) Proteolysis of CL-K1 in the presence and absence of Ca^2+. Two fold serial dilutions of trypsin were used at a starting concentration of 2% (w/w). In all experiments data are mean ± error from two separate experiments. CL-K1, collectin-K1; CRD, carbohydrate-recognition domain.
Target sequence in this assay (Q9BWP8 116-271): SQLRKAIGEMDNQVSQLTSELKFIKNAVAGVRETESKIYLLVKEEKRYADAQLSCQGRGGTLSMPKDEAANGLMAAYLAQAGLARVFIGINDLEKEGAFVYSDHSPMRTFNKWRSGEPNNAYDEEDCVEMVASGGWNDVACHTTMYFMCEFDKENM

CL-K1 fragment = target: T2, CL-K1 fragment (Homo sapiens, UniProt Q9BWP8); test: Ca2+ binding to the CL-K1 fragment measured by intrinsic fluorescence
T2 construct: made in house
T2 sequence (Q9BWP8 116-271): as above
Method: as §2
All experiments were carried out using a Fluoromax-4 (Horiba Jobin Yvon, Horiba UK Ltd (Middlesex, UK)) instrument with excitation wavelength at 280 nm, slit widths of 2 nm and emission wavelength range of 300 to 400 nm. The λex was 280 nm. Protein samples (0.5 μM) in 10 mM Tris–HCl, pH 7.4 containing 140 mM NaCl were measured in the presence of 2 mM CaCl2, 1 mM EDTA and 6 M urea.

CL-K1 [5] = target: T1, CL-K1; test: Inhibition of CL-K1 binding to immobilized yeast invertase by high-mannose epitopes; design: For full-length protein, the cDNA was cloned into the polylinker region of expression vector pED; made in house; host or cells: Chinese hamster ovary cells; conditions: relative to Man(α1-2)Man IC50 of 0.02 mM
Target sequence in this assay (Q9BWP8 26-271): as the sequence (Q9BWP8 26-271) above

[6] = tested on: Chinese hamster ovary cells; test: Secretion of wild type and variant CL-K1s from mammalian cells (immunoblot of medium); assay type: cell-based; conditions: transfected CHO cells, serum-free medium, anti-CL-K1 immunoblot
Excerpt: Figure 5 No secretion of variant CL-K1s containing mutations associated with 3MC syndrome. A) Structure of the CRD of CL-K1 showing the position of mutations associated with 3MC syndrome. Secondary structure features are labelled based on the structure of MBL [38]. Polar interactions are indicated by dotted lines. B) Secretion of wild type and variant CL-K1s from mammalian cells. […] Secreted CL-K1 was detected using rabbit polyclonal anti-CL-K1 antibodies. Purified wild-type CL-K1 (approximately 20 ng) was used as a positive control. CL-K1, collectin-K1; CRD, carbohydrate-recognition domain; MBL, mannan-bindng lectin; 3MC, Carnevale, Mingarelli, Malpuech and Michels.
For full-length protein, the cDNA was cloned into the polylinker region of expression vector pED [29] and protein was produced in Chinese hamster ovary cells and purified by affinity chromatography on mannose-Sepharose columns as described previously for MBL [28, 30]. […] Cells were grown in Power Prime broth (Molecular Dimensions Limited (Newmarket, UK)), induced during mid-log phase with IPTG (1 mM), and harvested after growth at 37°C for an additional 16 hours.

complement component C3b = test: Complement activation: C3b deposition on mannan in lectin-depleted human serum; assay type: biochemical; conditions: 1/100 human serum depleted of endogenous lectins
Method: as §1
After incubation at 37°C for one hour and washes with buffer containing 0.5% Tween-20, C3b was detected using rabbit anti-human C3c antibody (Dako UK Ltd (Ely, UK)) with alkaline phosphatase-conjugated goat anti-rabbit secondary antibody (Sigma) and p-nitrophenyl phosphate as the substrate.

yeast invertase = test: Binding of biotinylated invertase to full length CL-K1 and trimeric fragments; conditions: plates coated with CL-K1 protein
Excerpt: Figure 6 Characterisation of CL-K1 fragments containing disease-associated mutations. […] The elution positions of conalbumin (75 kDa), ovalbumin (44 kDa) and ribonuclease A (13.7 kDa) are indicated. […] Bottom, None of the three CL-K1 variants interacts with the column, even in the presence of Ca^2+. B) CD spectra of the wild-type CL-K1 fragment and the disease-associated CL-K1 variants. […] Values are the mean ± error from duplicate measurements. Tighter binding of the full-length protein is due to its increased avidity. CL-K1, collectin-K1; EDTA, ethylenediaminetetraacetic acid.
After washing, wells were incubated with 1:2000 dilution of goat peroxidase conjugated anti-biotin antibody (Sigma) and developed with tetramethylbenzidine (Sigma). Absorbance was measured at 450 nm.

Molecule | relative fluorescence, With Ca^2+ (CL-K1 [1]) | relative fluorescence, Without Ca^2+ (CL-K1 [1]) | other results
OC[C@H]1O[C@H](O)[C@H](O)[C@@H](O)[C@H]1O [compound 6] | 294 ± 167 | 870 ± 157 | 
CC1OC(O)C(O)C(O)C1O (stereo not shown) [compound 11] | 546 ± 98 | 1922 ± 358 | 
Mannan |  |  | binding to CL-K1 by surface plasmon resonance (CL-K1 [2]): bound tightly; binding of CL-K1 on blot (CL-K1 [3]): binding
CC(=O)N[C@@H]1[C@@H](O)[C@H](O)[C@@H](CO)O[C@H]1O [compound 20] | 170 ± 91 | 535 ± 116 | 
CC1OC(O)C(O)C(O)C1O (stereo not shown) [compound 10] | 431 ± 27 | 1097 ± 138 | 
OC[C@H]1O[C@H](O)[C@@H](O)[C@@H](O)[C@@H]1O [compound 8] | 566 ± 230 | 1156 ± 233 | 
[Ca+2] [Ca^2+] |  |  | Kd (CL-K1 [4]): ~1000 µM; Kd (CL-K1 fragment; read-out: KD for Ca2+ by titration): 430 µM; Hill coefficient of Ca2+ binding (CL-K1 fragment; trimeric neck+CRD fragment, intrinsic fluorescence): 2.4
OC[C@H]1OC(O)[C@@H](O)[C@@H](O)[C@@H]1O (stereo partly shown) [mannose] |  |  | fold by which inhibition by Man(α1-2)Man is greater than for this ligand (CL-K1 [5]): > 300 fold
CL-K1: full-length recombinant human collectin-K1 produced in Chinese hamster ovary cells |  |  | secretion into medium [6]: secreted; complement activation, fold lower activity than human MBL (complement component C3b): 2.5 fold; binding to yeast invertase (yeast invertase): bound
OC[C@H]1O[C@H](O)[C@H](O)[C@@H](O)[C@@H]1O [compound 7] | 250 ± 80 | 952 ± 297 | 
OCC1OC(OCC2OC(OCC3OC(O)C(O)C(OC4OC(CO)C(O)C(O)C4O)C3O)C(O)C(OC3OC(CO)C(O)C(O)C3O)C2O)C(O)C(O)C1O (stereo not shown) [compound 310] | 1000 ± 468 | 768 ± 303 | glycan-array binding by CL-K1 (CL-K1 [1]): not
thyroglobulin: Bovine thyroglobulin from GE Healthcare |  |  | binding of CL-K1 on blot (CL-K1 [3]): binding
OC[C@H]1O[C@@H](O)[C@H](O)[C@@H](O)[C@H]1O [compound 16] | 941 ± 308 | 4062 ± 774 | 
fetuin: Bovine fetuin from Sigma-Aldrich |  |  | binding of CL-K1 on blot (CL-K1 [3]): not
Invertase: yeast invertase glycoprotein from Sigma-Aldrich |  |  | binding to CL-K1 by surface plasmon resonance (CL-K1 [2]): bound tightly; binding of CL-K1 on blot (CL-K1 [3]): binding
NCCCCCO[C@H]1O[C@H](CO[C@H]2O[C@H](CO[C@H]3O[C@H](CO)[C@@H](O)[C@H](O)[C@@H]3O[C@H]3O[C@H](CO)[C@@H](O)[C@H](O)[C@@H]3O)[C@@H](O)[C@H](O[C@H]3O[C@H](CO)[C@@H](O)[C@H](O)[C@@H]3O[C@H]3O[C@H](CO)[C@@H](O)[C@H](O)[C@@H]3O)[C@@H]2O)[C@@H](O)[C@H](O[C@H]2O[C@H](CO)[C@@H](O)[C@H](O)[C@@H]2O[C@H]2O[C@H](CO)[C@@H](O)[C@H](O)[C@@H]2O[C@H]2O[C@H](CO)[C@@H](O)[C@H](O)[C@@H]2O)[C@@H]1O [ligand 312, Manα1-2Manα1-2Manα1-3(Manα1-2Manα1-6(Manα1-2Manα1-3)Manα1-6)Manα-Sp9] |  |  | glycan-array binding by CL-K1 (CL-K1 [1]): bound tightly
CC(=O)N[C@@H]1[C@@H](O)[C@H](O)[C@@H](CO)O[C@H]1O [compound 21] | 499 ± 293 | 1798 ± 141 | 
OC[C@H]1O[C@@H](O)[C@@H](O)[C@@H](O)[C@@H]1O [compound 18] | 99 ± 9 | 570 ± 170 | 
OC[C@H]1O[C@@H](O)[C@H](O)[C@@H](O)[C@@H]1O [compound 17] | 831 ± 505 | 4473 ± 1785 | 

Source: PMC4431178, “Molecular basis of sugar recognition by collectin-K1 and the effects of mutations associated with 3MC syndrome” (BMC Biology, 2015)
